Data reported in ChEMBL document CHEMBL1141999, “Biaryls and heterobiaryls as alpha-glucosidase and protein tyrosine phosphatase inhibitors” (Bioorg Med Chem Lett, 2005).

Tests used:
[1] = Percentage inhibition (100 uM) against protein tyrosine […]
[2] = target: T1, Neutral alpha-glucosidase AB (Homo sapiens) (UniProt Q14697); assay: Percentage inhibition (100 uM) against Alpha glucosidase
T1 sequence (whole entry): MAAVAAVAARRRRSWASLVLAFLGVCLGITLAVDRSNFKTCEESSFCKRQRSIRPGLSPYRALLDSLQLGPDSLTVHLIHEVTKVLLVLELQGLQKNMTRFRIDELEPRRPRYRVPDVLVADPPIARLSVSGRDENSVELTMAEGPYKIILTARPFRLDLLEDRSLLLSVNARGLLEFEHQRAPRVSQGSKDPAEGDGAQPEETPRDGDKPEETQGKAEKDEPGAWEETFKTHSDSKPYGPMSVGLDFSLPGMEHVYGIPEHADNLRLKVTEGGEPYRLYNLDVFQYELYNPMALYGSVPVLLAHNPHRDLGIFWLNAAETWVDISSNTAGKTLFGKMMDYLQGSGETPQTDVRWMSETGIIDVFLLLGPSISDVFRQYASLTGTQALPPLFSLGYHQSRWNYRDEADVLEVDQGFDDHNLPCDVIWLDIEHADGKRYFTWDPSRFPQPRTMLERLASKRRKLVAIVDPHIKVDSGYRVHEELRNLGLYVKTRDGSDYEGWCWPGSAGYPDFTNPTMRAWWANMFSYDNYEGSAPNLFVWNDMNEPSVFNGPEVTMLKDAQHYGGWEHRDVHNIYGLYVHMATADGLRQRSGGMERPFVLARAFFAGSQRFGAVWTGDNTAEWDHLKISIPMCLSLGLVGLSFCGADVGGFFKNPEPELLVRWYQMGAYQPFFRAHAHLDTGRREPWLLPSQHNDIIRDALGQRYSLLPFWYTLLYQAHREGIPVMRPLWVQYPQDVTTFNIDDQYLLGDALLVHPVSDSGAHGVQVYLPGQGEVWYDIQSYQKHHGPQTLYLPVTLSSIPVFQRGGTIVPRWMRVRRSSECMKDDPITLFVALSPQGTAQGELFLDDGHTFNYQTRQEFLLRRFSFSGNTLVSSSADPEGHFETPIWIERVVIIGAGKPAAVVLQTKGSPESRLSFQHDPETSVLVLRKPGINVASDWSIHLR

Compound	inhibition [1]	inhibition [2]
N#Cc1c(N2CCc3ccccc3C2)cc(-c2ccc(Cl)cc2)c2c1CCCCCC2	24.2%	28.8%
N#Cc1c(N2CCc3ccccc3C2)cc(-c2cccc3ccccc23)c2c1-c1ccccc1SC2	41.9%	98.7%
N#Cc1c(N2CCc3ccccc3C2)cc(-c2ccc(Cl)cc2)c2c1CCCC2	23.2%	20.7%
N#Cc1c(N2CCc3ccccc3C2)cc(-c2ccc(Br)cc2)oc1=O	25.1%	59.7%
N#Cc1c(-c2ccc(C(F)(F)F)cc2)cc(-c2ccc3ccc4cccc5ccc2c3c45)cc1N1CCCC1	12.5%	93.8%
SODIUM ORTHOVANAD	77.6%	–
N#Cc1c(N2CCc3ccccc3C2)cc(-c2ccc(Cl)cc2)c2c1CCCCC2	42.8%	47.4%
N#Cc1c(N2CCc3ccccc3C2)cc(-c2cccc3ccccc23)c2c1CCSC2	26.7%	96.1%
C[C@H]1O[C@H](O[C@H]2[C@H](O)[C@@H](O)[C@@H](O[C@H]3[C@H](O)[C@@H](O)C(O)O[C@@H]3CO)O[C@@H]2CO)[C@H](O)[C@@H](O)[C@@H]1N[C@H]1C=C(CO)[C@@H](O)[C@H](O)[C@H]1O (some centres not stated)	–	90%
N#Cc1c(N2CCc3ccccc3C2)cc(-c2cccc3ccccc23)c2c1CCCC2	14.8%	72.2%
N#Cc1c(N2CCc3ccccc3C2)cc(-c2cccc3ccccc23)c2c1-c1ccccc1CC2	51.8%	94.8%
N#Cc1c(N2CCc3ccccc3C2)cc(-c2ccc(Cl)cc2)oc1=O	18.2%	51.9%
